System: microorganism culture
Assay: Comparative testing: time to death of the culture after contact
Assay type: cell-based
Experimental: Isopropyl-o-cresol (95% purity) was obtained as described in Examples I and 2. A 50% solution of isopropyl-o-cresol was prepared by combining 50 grams of isopropyl-o-cresol with […] citric and propionic acid.
An antimicrobial compound containing isopropyl-o-cresol was prepared as described in Examples 3 and 4.
Each compound was administered to a culture of […]. Cell death was observed by monitoring whether or not the cells multiplied.
For example, when the microorganism culture was contacted with isopropyl-o-cresol alone the cells died within 6-8 hours after contact. When the microorganism culture was contacted with isopropyl-o-cresol combined with an organic acid to form a solution (without chemical modification of either species), the microorganisms died within 3-4 hours after exposure. When the microorganism culture was contacted with an antimicrobial compound containing isopropyl-o-cresol reacted with propionic and citric acids (50:50), the organisms died within 5-10 minutes after being contacted with the antimicrobial compound.

## CC(C)c1cc(CC(=O)O)cc(O)c1OC(=O)C(O)(CC(=O)O)CC(=O)O [3-{[4-(carboxymethyl)-2-hydroxy-6-isopropylphenoxy]carbonyl}-3-hydroxypentanedioic acid]
  time within which the organisms died after contact: 5 to 10 min

## Cc1ccc(C(C)C)cc1O [isopropyl-o-cresol, 5-isopropyl-2-methylphenol]
  time within which the cells died after contact: 6 to 8 h

Source: patent US6414036B1, “Composition for treatment of infections of humans and animals” (Van Beek Global/Ninkov LLC, priority 1999, dated 2002)
